In patent US20190185479A1, “BICYCLIC NITROGENATED HETEROCYCLIC COMPOUND” (MITSUBISHI TANABE PHARMA CORPORATION, priority 2016, published 2019):
Structures can show the parent of a compound that is named as a salt.

How the values were obtained:
Type in all cases: biochemical
Human PDE7B (hPDE7B) = biological target: T1, Human PDE7B (hPDE7B) (Homo sapiens, UniProt Q9NP56); assay: Measurement of PDE7 inhibitory activity (Experimental Example 1; residual cAMP, LANCE Ultra cAMP TR-FRET); settings: cAMP 3 nmol/L, room temperature 60 minutes
T1 construct: made in house; host or cells: COS-7 cells
Method: Human PDE7B (hPDE7B) was isolated from COS-7 cells transfected with plasmids encoding hPDE7B according to the method described in a reference, Biochemical and Biophysical Research Communication, 271, p. 575-583 (2000). The resulting enzyme solution was used in the PDE assay.
(§1) PDE7 inhibitory assay was carried out by reacting the mixture of a compound, hPDE7B, and cAMP, and measuring the residual cAMP by a detection method using LANCE (registered trademark) Ultra cAMP Detection Kit (ParkinElmer). The compound was dissolved in DMSO, and diluted so that the concentration would become 50 times of the final concentration. The hPDE7B and cAMP were diluted with an assay buffer (50 mmol/L Tris-HCl, 1 mmol/L MgCl2, 0.1% BSA, 0.5 mmol/L DTT, pH7.5) so that the hPDE7B would have an appropriate enzyme activity and the concentration of cAMP would become 6 nmol/L. To a 96 well plate were added the compound (2 μL) (DMSO final concentration: 2%), hPDE7B (48 μL), and cAMP (50 μL) (concentration at the reaction: 3 nmol/L), and the resulting mixture was reacted at room temperature for 60 minutes. The reaction solution (20 μL) was subjected to a TR-FRET method according to the protocol specified by the kit to measure the concentration of the residual cAMP. In the assay, to a tracer solution specified by the kit was added 0.5 mmol/L of 3-isobutyl-1-methylxanthine (IBMX, nonselective PDE inhibitor) in order to stop the PDE enzyme reaction after the completion of reaction until the measurement.
The reaction without a compound was defined as “0% inhibition”, the reaction without hPDE7B was defined as “100% inhibition”, and the inhibition rate of the compound was calculated by the following equation.
Inhibition rate of compound (%)={(Residual cAMP concentration at the addition of compound−Residual cAMP concentration in 0% inhibition)/(Residual cAMP concentration in 100% inhibition−Residual cAMP concentration in 0% inhibition)}×100

hPDE4D = biological target: T2, hPDE4D (Homo sapiens, UniProt Q08499); assay: PDE4 inhibition assay (IC50), Experimental Example 3; settings: hPDE4D; read-out: PDE inhibition assay IC50, PDE4
T2 construct: purchased SB Drug Discovery
Method: as §1
(§2) The prediction of PDE7 selectivity was evaluated by comparing each IC50 value of a compound against PDE4, 8, and 10 with the IC50 value of said compound against PDE7B.
(§3) hPDE4D, hPDE8B, and hPDE10A were prepared by the same method as [Method for preparing samples 2].
(§4) PDE4, 8, and 10 inhibitory assays were carried out by the same method as [Assay procedure 1].
(§5) The reaction without a compound wad defined as “0% inhibition”, the reaction without each PDE was defined as “100% inhibition”, and the calculation of IC50 value was carried out by the same method as <Method for data calculation 1>.

hPDE8B = biological target: T3, hPDE8B (Homo sapiens, UniProt O95263); assay: PDE8 inhibition assay (IC50), Experimental Example 3; settings: for IC50: hPDE8B, read-out: PDE inhibition assay IC50, PDE8
T3 construct: purchased SB Drug Discovery
Method: as §1, §2, §3, §4, §5

T3 sequence (O95263 whole entry): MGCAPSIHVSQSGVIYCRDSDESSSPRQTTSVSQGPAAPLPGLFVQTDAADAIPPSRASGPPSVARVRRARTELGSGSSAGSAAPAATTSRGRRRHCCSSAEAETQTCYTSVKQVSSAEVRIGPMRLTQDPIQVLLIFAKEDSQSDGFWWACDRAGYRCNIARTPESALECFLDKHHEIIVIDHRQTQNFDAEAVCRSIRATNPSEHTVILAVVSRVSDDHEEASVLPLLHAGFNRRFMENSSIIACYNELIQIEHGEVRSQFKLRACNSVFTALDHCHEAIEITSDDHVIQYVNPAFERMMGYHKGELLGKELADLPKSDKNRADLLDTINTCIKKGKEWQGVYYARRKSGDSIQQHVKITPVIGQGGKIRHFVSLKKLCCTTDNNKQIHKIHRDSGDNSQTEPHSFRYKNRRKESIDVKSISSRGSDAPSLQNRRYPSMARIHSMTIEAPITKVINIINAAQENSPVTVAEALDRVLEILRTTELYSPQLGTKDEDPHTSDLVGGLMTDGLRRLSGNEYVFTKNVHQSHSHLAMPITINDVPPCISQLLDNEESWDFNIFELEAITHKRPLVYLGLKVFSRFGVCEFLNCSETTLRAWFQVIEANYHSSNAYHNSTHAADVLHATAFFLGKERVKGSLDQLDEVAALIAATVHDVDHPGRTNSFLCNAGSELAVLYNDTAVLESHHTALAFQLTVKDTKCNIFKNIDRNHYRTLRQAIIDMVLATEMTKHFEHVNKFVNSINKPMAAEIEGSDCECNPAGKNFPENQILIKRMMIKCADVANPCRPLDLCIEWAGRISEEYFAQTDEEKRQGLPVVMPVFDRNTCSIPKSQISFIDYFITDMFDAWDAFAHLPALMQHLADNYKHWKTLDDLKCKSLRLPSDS
T1 sequence (Q9NP56 whole entry): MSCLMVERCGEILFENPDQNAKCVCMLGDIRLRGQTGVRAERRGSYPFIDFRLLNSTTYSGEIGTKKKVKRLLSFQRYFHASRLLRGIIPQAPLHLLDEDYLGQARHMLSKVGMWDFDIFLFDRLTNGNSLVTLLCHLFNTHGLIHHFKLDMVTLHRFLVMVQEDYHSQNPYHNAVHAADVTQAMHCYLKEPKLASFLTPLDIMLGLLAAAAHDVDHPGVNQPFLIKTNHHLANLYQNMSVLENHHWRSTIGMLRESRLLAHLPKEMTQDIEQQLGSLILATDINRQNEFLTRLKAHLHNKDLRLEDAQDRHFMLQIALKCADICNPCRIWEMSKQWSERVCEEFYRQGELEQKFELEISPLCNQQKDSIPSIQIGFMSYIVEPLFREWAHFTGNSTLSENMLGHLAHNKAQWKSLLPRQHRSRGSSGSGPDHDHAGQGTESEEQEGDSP
T2 sequence (Q08499 whole entry): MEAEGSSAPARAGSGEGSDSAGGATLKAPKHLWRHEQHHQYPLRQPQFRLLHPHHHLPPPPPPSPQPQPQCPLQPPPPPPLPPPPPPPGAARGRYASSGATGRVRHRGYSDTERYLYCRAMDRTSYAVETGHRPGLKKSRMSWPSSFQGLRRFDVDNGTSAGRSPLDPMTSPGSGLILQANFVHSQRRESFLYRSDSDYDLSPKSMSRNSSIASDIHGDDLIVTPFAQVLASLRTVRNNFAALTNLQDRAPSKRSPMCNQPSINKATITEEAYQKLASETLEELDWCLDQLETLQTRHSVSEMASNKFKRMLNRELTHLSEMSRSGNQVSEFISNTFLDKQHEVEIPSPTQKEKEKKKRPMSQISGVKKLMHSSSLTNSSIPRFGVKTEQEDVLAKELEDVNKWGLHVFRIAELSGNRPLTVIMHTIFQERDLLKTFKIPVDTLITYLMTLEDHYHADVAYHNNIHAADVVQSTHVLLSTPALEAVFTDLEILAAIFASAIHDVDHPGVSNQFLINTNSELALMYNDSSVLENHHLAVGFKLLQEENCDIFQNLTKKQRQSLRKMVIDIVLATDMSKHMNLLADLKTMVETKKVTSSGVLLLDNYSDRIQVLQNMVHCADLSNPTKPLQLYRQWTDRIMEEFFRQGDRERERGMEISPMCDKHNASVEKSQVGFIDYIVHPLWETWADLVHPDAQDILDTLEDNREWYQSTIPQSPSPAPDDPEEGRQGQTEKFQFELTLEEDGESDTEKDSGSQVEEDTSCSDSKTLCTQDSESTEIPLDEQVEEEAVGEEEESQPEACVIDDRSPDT

SMILES	IC50 (Human PDE7B (hPDE7B))	other results
CC1(n2nnc3c(N)ncnc32)CCCCC1 [Example 7]	0.56 µM	inhibition at 10 µM (hPDE8B; at 10 μmol/L, read-out: inhibition rate (%) at prescribed concentration, PDE8): 50%
CC(C)(C)OC(=O)N1CCC[C@H](n2nnc3c(N)ncnc32)C1 [Example 13, Tert-butyl (3S)-3-(7-amino-3H-[1,2,3]triazolo[4,5-d]pyrimidin-3-yl)piperidine-1-carboxylate]	0.16 µM	IC50 (hPDE8B): 0.22 µM
Nc1nccn2c(N3C4CCC3CC4)nnc12 [Example 66]	0.36 µM	–
CC1(C)CCCN(c2nnc3c(N)ncc(-c4ccccc4)n23)C1 [Example 81]	0.16 µM	–
Nc1ncnc2c1nnn2C1CCCCC1 [Example 85, 3-cyclohexyl-3H-[1,2,3]triazolo[4,5-d]pyrimidin-7-amine hydrochloride]	0.04 µM	–
Nc1ncnc2c1nnn2[C@@H]1CCCC(F)(F)C1 [Example 88]	0.84 µM	–
Nc1ncnc2c1nnn2[C@H]1CCCOC1 [Example 91]	0.36 µM	–
CCOc1nc(N)c2nnn(C3CCCCC3)c2n1 [Example 93, 3-cyclohexyl-5-ethoxy-3H-[1,2,3]triazolo[4,5-d]pyrimidin-7-amine]	0.02 µM	–
CC[C@H]1CC[C@H](n2nnc3c(N)ncnc32)CC1 [Example 100]	0.12 µM	IC50 (hPDE8B): 1.8 µM
Nc1ncnc2c1nnn2[C@H]1CC[C@@H](C(F)(F)F)CC1 [Example 102]	0.25 µM	–
Nc1ncnc2c1nnn2[C@H]1CC[C@H](C(F)(F)F)CC1 [Example 103]	0.45 µM	–
C[C@@H]1C[C@H](C)C[C@@H](n2nnc3c(N)ncnc32)C1 [Example 105]	0.31 µM	–
C=C(C)[C@@H]1CC[C@@H](C)[C@@H](n2nnc3c(N)ncnc32)C1 [Example 106, 3-[(1S,2R,5R)-2-methyl-5-(prop-1-en-2-yl)cyclohexyl]-3H-[1,2,3]triazolo[4,5-d]pyrimidin-7-amine]	0.3 µM	IC50 (hPDE8B): 4.38 µM
CC1CC(n2nnc3c(N)ncnc32)CC(C)(C)C1 (stereo not drawn) [Example 108]	0.23 µM	–
Nc1ncnc2c1nnn2C1CCCCC1F (stereo not drawn) [Example 112]	0.17 µM	–
COC1CCCCC1n1nnc2c(N)ncnc21 (stereo not drawn) [Example 116]	0.38 µM	–
CCC1CCCC(n2nnc3c(N)ncnc32)C1 (stereo not drawn) [Example 117]	0.08 µM	–

SMILES	IC50 (Human PDE7B (hPDE7B))	other results
Nc1ncnc2c1nnn2C1CCCC(CF)C1 (stereo not drawn) [Example 118]	0.08 µM	IC50 (hPDE4D): 4.25 µM; inhibition at 1 µM (hPDE8B; at 1 μmol/L, read-out: inhibition rate (%) at prescribed concentration, PDE8): 55%
Nc1ncnc2c1nnn2C1CCCC(C(F)F)C1 (stereo not drawn) [Example 119]	0.02 µM	–
Nc1ncnc2c1nnn2C1CCCC(CC(F)(F)F)C1 (stereo not drawn) [Example 120]	0.38 µM	–
COC1CCCC(n2nnc3c(N)ncnc32)C1 (stereo not drawn) [Example 121]	0.87 µM	–
Nc1ncnc2c1nnn2C1CCCC(COc2ccccc2)C1 (stereo not drawn) [Example 125]	0.21 µM	IC50 (hPDE8B): 1.11 µM
Nc1ncnc2c1nnn2C1CCCC(COCc2ccccc2)C1 (stereo not drawn) [Example 126]	0.28 µM	IC50 (hPDE8B): 2.65 µM
Cc1cnc(C2CCCC(n3nnc4c(N)ncnc43)C2)s1 (stereo not drawn) [Example 127]	0.73 µM	–
Cc1ccc(F)c(-n2nnc3c(N)ncnc32)c1 [Example 129]	0.75 µM	–
Nc1ncnc2c1nnn2-c1cccc(C(F)(F)F)c1 [Example 130]	0.49 µM	–
Nc1ncnc2c1nnn2-c1cccc(C(=O)NCc2ccccc2)c1 [Example 131]	0.25 µM	–
CC(C)[C@@H]1CC[C@@H](C)[C@@H](n2nnc3c(N)ncnc32)C1 [Example 132, 3-[(1S,2R,5R)-2-methyl-5-(propan-2-yl)cyclohexyl]-3H-[1,2,3]triazolo[4,5-d]pyrimidin-7-amine]	0.67 µM	–
CC(C)[C@H]1CC[C@H](C)[C@H](n2nnc3c(N)ncnc32)C1 [Example 134, 3-[(1R,2S,5S)-2-methyl-5-(propan-2-yl)cyclohexyl]-3H-[1,2,3]triazolo[4,5-d]pyrimidin-7-amine]	0.33 µM	–
Nc1ncnc2c1nnn2[C@@H]1CCCN(c2ccccc2)C1 [Example 136, 3-[(3R)-1-phenylpiperidin-3-yl]-3H-[1,2,3]triazolo[4,5-d]pyrimidin-7-amine]	0.68 µM	–
Nc1ncnc2c1nnn2[C@H]1CCCN(c2ccccc2)C1 [Example 137, 3-[(3S)-1-phenylpiperidin-3-yl]-3H-[1,2,3]triazolo[4,5-d]pyrimidin-7-amine]	0.19 µM	inhibition at 0.1 µM (hPDE8B; at 0.1 μmol/L, read-out: inhibition rate (%) at prescribed concentration, PDE8): 58%
Nc1ncnc2c1nnn2[C@H]1CCCN(Cc2ccccc2)C1 [Example 138, 3-[(3S)-1-benzylpiperidin-3-yl]-3H-[1,2,3]triazolo[4,5-d]pyrimidin-7-amine]	0.34 µM	–
Nc1ncnc2c1nnn2-c1cccc(OCc2ccccc2)c1 [Example 139, 3-[3-(benzyloxy)phenyl]-3H-[1,2,3]triazolo[4,5-d]pyrimidin-7-amine]	0.09 µM	–

Continued, in another order:

IC50 (Human PDE7B (hPDE7B))	SMILES	other results
0.003 µM	CC1CCC(F)(F)CC1c1nnc2c(N)ncnn12 (single isomer, unassigned) [Example 246, 3-(cis-5,5-difluoro-2-methylcyclohexyl) [1,2,4]triazolo[3,4-f][1,2,4]triazin-8-amine]	IC50 (hPDE4D): 2.3 µM; IC50 (hPDE8B): 4.4 µM
0.38 µM	CC1(C)CCCCN1c1nnc2c(N)nccn12 [Example 36, 3-(2,2-dimethylpiperidin-1-yl)-[1,2,4]triazolo[4,3-a]pyrazin-8-amine]	–
0.49 µM	CC(C)C1CCCCN1c1nnc2c(N)nccn12 (stereo not drawn) [Example 37]	–
0.22 µM	Nc1nccn2c(N3CCCCC3C(F)(F)F)nnc12 (stereo not drawn) [Example 39]	–
0.73 µM	Nc1nccn2c(N3CCCCC3Cc3ccccc3)nnc12 (stereo not drawn) [Example 40]	–
0.29 µM	Nc1nccn2c(N3CCCCC3c3ccccc3)nnc12 (stereo not drawn) [Example 41]	–
0.21 µM	Nc1nccn2c(N3CCCC4(CCCC4)C3)nnc12 [Example 45]	–
0.3 µM	Nc1nccn2c(N3CCCC(F)(F)C3)nnc12 [Example 47]	–
0.26 µM	Nc1nccn2c(N3CCCC(c4ccccc4)C3)nnc12 (stereo not drawn) [Example 49]	–
0.52 µM	CCC1CCN(c2nnc3c(N)nccn23)CC1 [Example 50]	–
0.11 µM	CC1(C)CCN(c2nnc3c(N)nccn23)CC1 [Example 51]	–
0.304 µM	C[C@@H]1CCC[C@@H](C)N1c1nnc2c(N)nccn12 [Example 63]	–
0.107 µM	C[C@H]1CCC[C@H](C)N1c1nnc2c(N)nccn12 [Example 64]	–
0.14 µM	Nc1nccn2c(N3CCC4(CC3)CC4)nnc12 [Example 78]	–
0.73 µM	Nc1nccn2c(C3CC(F)(F)C3)nnc12 [Example 84, 3-(3,3-difluorocyclobutyl)-[1,2,4]triazolo[4,3-a]pyrazin-8-amine]	–
0.42 µM	COC1CCCC(n2nnc3c(N)ncnc32)C1 (stereo not drawn) [Example 123]	–
0.26 µM	Nc1ncnc2c1nnn2C1CCCC(CO)C1 (stereo not drawn) [Example 124]	–
0.16 µM	CC1CC(c2nnc3c(N)nccn23)C1 (stereo not drawn) [Example 133, 3-(3-methylcyclobutyl)-[1,2,4]triazolo[4,3-a]pyrazin-8-amine]	–
0.7 µM	Nc1nccn2c(C3CCCC(C(F)(F)F)C3)nnc12 (stereo not drawn) [Example 147]	–
0.13 µM	Nc1nccn2c(C3CCC(F)(F)CC3)nnc12 [Example 150]	–
0.11 µM	CC1CC(c2nnc3c(N)nccn23)CC(F)(F)C1 (stereo not drawn) [Example 154]	–
0.92 µM	Nc1nccn2c(C3CC(C(F)(F)F)CC(F)(F)C3)nnc12 (stereo not drawn) [Example 157]	–
0.07 µM	Nc1nccn2c(C3CCC4CC4C3)nnc12 (stereo not drawn) [Example 158, 3-(bicyclo[4.1.0]hept-3-yl) [1,2,4]triazolo[4,3-a]pyrazin-8-amine]	–
0.17 µM	Nc1nccn2c([C@@H]3C[C@@H]4CC[C@H]3C4)nnc12 [Example 162]	–
0.36 µM	Nc1nccn2c(CC3CCCCC3)nnc12 [Example 165]	–
0.44 µM	Nc1nccn2c(C3CCCCO3)nnc12 (stereo not drawn) [Example 168]	–
0.27 µM	Nc1nccn2c(-c3ccccc3)nnc12 [Example 170]	–
0.33 µM	Nc1nccn2c([C@@H]3CCCC(F)(F)C3)nnc12 [Example 213, 3-(3,3-difluorocyclohexyl) [1,2,4]triazolo[4,3-a]pyrazin-8-amine]	–
